Measurements reported in PMC3881423 (Journal of medicinal chemistry, 2013).

Key:
MAO-A = MAO-A (Homo sapiens, UniProt P21397)
MAO-B = MAO-B (Homo sapiens, UniProt P27338)
LSD1 [1] = molecular target: T1, LSD1 (Homo sapiens, UniProt O60341); settings: dialyzed against hepes buffer 4°C 24 h
LSD1 [2] = molecular target: T1, LSD1
LSD1 [3] = molecular target: T1, LSD1; settings: monitored at 468nm; data not shown
MGC-803 cells [4] = settings: MGC-803, 0.25 μM
MGC-803 cells [5] = settings: MGC-803, 0.02 μM, 48 h
[6] = molecular target: LSD1-snai1 complex in MGC-803 cells (Homo sapiens, UniProt O60341); settings: MGC-803, 48h; 2-PCPA 100, 250μM
[7] = molecular target: purified LSD1 recombinant (Homo sapiens, UniProt O60341)
LSD1 [8] = molecular target: T1, LSD1; assay: Microscale thermophoresis; assay type: binding

MAO-B, sequence (P27338 whole entry, species assumed): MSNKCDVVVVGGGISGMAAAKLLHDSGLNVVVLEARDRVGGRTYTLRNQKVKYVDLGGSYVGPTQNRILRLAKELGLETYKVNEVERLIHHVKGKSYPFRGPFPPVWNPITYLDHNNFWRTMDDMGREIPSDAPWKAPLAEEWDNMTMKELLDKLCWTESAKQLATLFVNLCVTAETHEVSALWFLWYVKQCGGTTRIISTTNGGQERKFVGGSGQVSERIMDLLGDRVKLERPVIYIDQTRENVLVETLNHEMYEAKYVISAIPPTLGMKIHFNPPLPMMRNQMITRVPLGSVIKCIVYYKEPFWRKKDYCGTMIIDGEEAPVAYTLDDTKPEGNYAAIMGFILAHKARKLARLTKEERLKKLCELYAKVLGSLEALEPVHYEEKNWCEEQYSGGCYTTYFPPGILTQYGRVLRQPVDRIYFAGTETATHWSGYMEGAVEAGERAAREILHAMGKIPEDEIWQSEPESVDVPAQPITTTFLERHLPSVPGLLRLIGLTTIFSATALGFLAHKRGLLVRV
MAO-A, sequence (P21397 whole entry, species assumed): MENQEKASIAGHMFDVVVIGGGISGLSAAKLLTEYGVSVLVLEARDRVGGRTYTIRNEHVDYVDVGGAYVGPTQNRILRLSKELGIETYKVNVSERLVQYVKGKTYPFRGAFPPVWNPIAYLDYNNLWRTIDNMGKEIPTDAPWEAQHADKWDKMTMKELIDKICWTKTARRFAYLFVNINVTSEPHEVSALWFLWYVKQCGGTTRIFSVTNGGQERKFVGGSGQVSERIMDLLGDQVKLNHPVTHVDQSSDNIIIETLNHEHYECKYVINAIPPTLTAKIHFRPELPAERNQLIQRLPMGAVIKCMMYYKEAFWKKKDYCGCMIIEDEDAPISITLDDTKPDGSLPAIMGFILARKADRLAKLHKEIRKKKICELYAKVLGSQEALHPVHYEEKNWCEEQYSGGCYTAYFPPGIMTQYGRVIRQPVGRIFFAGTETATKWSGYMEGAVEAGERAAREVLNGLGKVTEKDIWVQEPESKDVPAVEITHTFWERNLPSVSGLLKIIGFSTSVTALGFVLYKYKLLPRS

CC(C)(C)OC(=O)N1CCN(C(=S)SCc2cn(Cc3ccccc3F)nn2)CC1 [Compound 22, tert Butyl 4-(((1-(2-fluorobenzyl)-1H-1,2,3-triazol-4-yl)methylthio)carbonothioyl)-piperazine-1-carboxylate]
effect on MAO-A activity (in words) (MAO-A): no significant effects
effect on MAO-B activity (in words) (MAO-B): no significant effects

Cc1ccc(Cn2cc(CSC(=S)N3CCN(C(=O)OC(C)(C)C)CC3)nn2)cc1 [Compound 26, tert Butyl 4-(((1-(4-methylbenzyl)-1H-1,2,3-triazol-4-yl)methylthio)carbonothioyl)-piperazine-1-carboxylate]
effect on MAO-A activity (in words) (MAO-A): no significant effects
effect on MAO-B activity (in words) (MAO-B): no significant effects
LSD1 activity after dialysis (LSD1 [1]): the activity can be restored
mode of inhibition over LSD1 substrate H3K4me2 (LSD1 [2]; FAD 2.5 μM, peptide 10 to 80 μM): non-competitive inhibitor
mode of inhibition over LSD1 cofactor FAD (LSD1 [2]; peptide 25 μM, FAD 0.6 to 9.0 μM): competitive inhibitor
amount of FAD in the dialysis tube after dialysis (LSD1 [3]): much less than that in control group
cell proliferation (MGC-803 cells [4]): cannot inhibit the cell proliferation
cell migration (MGC-803 cells [5]): significantly inhibited
binding of LSD1 to snai1 [6]: significantly decreased

Cc1ccccc1Cn1cc(CSC(=S)N2CCN(C(=O)OC(C)(C)C)CC2)nn1 [Compound 29]
LSD1 inhibitory activity (in words) [7]: without any detectable activity

CC(C)(C)OC(=O)N1CCN(C(=S)SCc2cn(CCOc3cc(=O)oc4ccccc34)nn2)CC1 [Compound 47]
LSD1 inhibitory activity (in words) [7]: complete loss of activity or very weak binding affinity

CC(C)(C)OC(=O)N1CCN(C(=S)SCc2cn(Cc3ccc4ccccc4c3)nn2)CC1 [Compound 48]
LSD1 inhibitory activity (in words) [7]: complete loss of activity or very weak binding affinity

CC(C)(C)OC(=O)N1CCN(C(=S)SCc2cn(Cc3cc(=O)[nH]c4ccccc34)nn2)CC1 [Compound 49]
LSD1 inhibitory activity (in words) [7]: complete loss of activity or very weak binding affinity

CC(C)(C)OC(=O)N1CCN(C(=S)SCc2cn(Cc3nc4ccccc4[nH]3)nn2)CC1 [Compound 50]
LSD1 inhibitory activity (in words) [7]: complete loss of activity or very weak binding affinity

CC(C)(C)OC(=O)N1CCN(C(=S)SCc2cn(CC3=CC(=O)OC3)nn2)CC1 [Compound 51]
LSD1 inhibitory activity (in words) [7]: complete loss of activity or very weak binding affinity

Cc1cc2nc3c(=O)[nH]c(=O)nc-3n(C[C@H](O)[C@H](O)[C@H](O)COP(=O)(O)OP(=O)(O)OC[C@H]3O[C@@H](n4cnc5c(N)ncnc54)[C@H](O)[C@@H]3O)c2cc1C [FAD, flavin adenine dinucleotide]
Kd (LSD1 [8]): 182 nM
